# In US20170107503A1, “NOVEL METHODS, POLYPEPTIDES AND USES THEREOF” (priority 2014, published 2017):
# What was measured:
# Format in all cases: biochemical
# Conditions in all cases: WT-Trp = 100
# [1] = test system: Atlantic cod (Gadus morhua) trypsin I variant EZA-004, K154L in SEQ ID NO: 1 (K152L in SEQ ID NO: 2); assay: Activity assay to determine kinetic constants, EZA-004
# Method: (§1) Polypeptides corresponding to the wildtype amino acid sequence of trypsin I from Atlantic cod and thirty-eight mutated versions thereof were produced using the methods described in Example A.
# (§2) Activation of recombinant enzymes (approximately 0.01 mg/ml) was achieved by adding wild type trypsin (0.2 U/ml) at room temperature and incubate for 24 hours. The mixture was made in 20 mM Tris-HCl, 1 mM CaCl2, 50% glycerol, pH 8.0 to a final volume of 200 μl.
# (§3) The substrate (Gly-Pro-Arg) was used at concentrations 0.005-0.15 mM in assay buffer containing 1% DMSO. 245 μL of substrate solutions were pipetted into a 96-well plate. The reaction was started by adding 5 μL of the sample mixture (above) and monitored at 410 nm in a SpectraMax plate reader. Kinetic measurement was performed every minute of a continuous 15-min run.
# [2] = test system: Atlantic cod (Gadus morhua) trypsin I variant EZA-005, K154V in SEQ ID NO: 1 (K152V in SEQ ID NO: 2); assay: Activity assay to determine kinetic constants, EZA-005
# Method: as §1, §2, §3
# [3] = test system: Atlantic cod (Gadus morhua) trypsin I variant EZA-007, N98T in SEQ ID NO: 1 (N99T in SEQ ID NO: 2); assay: Activity assay to determine kinetic constants, EZA-007
# Method: as §1, §2, §3
# [4] = target: T1, Atlantic cod (Gadus morhua) trypsin I variant EZA-006, K154E in SEQ ID NO: 1 (K152E in SEQ ID NO: 2) (Gadus morhua, UniProt P16049, K152E); assay: Activity assay to determine kinetic constants, EZA-006
# T1 construct: made in house; host or cells: E. coli BL21 (DE3)
# T1 sequence (P16049 20-241 K152E): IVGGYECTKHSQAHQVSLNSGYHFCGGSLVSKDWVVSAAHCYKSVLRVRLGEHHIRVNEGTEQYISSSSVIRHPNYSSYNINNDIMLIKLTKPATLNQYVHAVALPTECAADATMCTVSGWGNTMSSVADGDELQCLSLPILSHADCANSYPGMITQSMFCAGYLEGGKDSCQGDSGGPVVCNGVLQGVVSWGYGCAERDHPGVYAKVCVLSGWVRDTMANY
# Method: as §1, §2, §3
# [5] = target: T2, Atlantic cod (Gadus morhua) trypsin I, recombinant wildtype, EZA-001, SEQ ID NO: 1 (Gadus morhua, UniProt P16049); assay: Activity assay to determine kinetic constants, EZA-001
# T2 construct: made in house; host or cells: E. coli BL21 (DE3)
# T2 sequence (P16049 20-241): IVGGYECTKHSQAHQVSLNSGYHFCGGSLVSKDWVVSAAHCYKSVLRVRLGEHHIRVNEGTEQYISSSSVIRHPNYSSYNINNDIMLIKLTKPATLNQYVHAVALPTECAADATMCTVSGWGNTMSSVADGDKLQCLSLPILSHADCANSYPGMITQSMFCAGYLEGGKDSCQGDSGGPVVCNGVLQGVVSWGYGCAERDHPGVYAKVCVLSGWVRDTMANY
# Method: as §1, §2, §3
# [6] = test system: Atlantic cod (Gadus morhua) trypsin I variant EZA-008, I99L in SEQ ID NO: 1 (I100L in SEQ ID NO: 2); assay: Activity assay to determine kinetic constants, EZA-008
# Method: as §1, §2, §3
# [7] = target: T3, Atlantic cod (Gadus morhua) trypsin I variant EZA-003, K154T in SEQ ID NO: 1 (K152T in SEQ ID NO: 2) (Gadus morhua, UniProt P16049, K152T); assay: Activity assay to determine kinetic constants, EZA-003
# T3 construct: made in house; host or cells: E. coli BL21 (DE3)
# T3 sequence (P16049 20-241 K152T): as the sequence (P16049 20-241 K152E) above, with E133T counted along it
# Method: as §1, §2, §3
# [8] = test system: Atlantic cod (Gadus morhua) trypsin I variant EZA-002, N244S, Y245N, S87K in SEQ ID NO: 1 (N240S, Y241N, S88K in SEQ ID NO: 2); assay: Activity assay to determine kinetic constants, EZA-002
# Method: as §1, §2, §3
# [9] = target: T4, Atlantic cod (Gadus morhua) trypsin I, wildtype, purified from Atlantic cod (WT-Trp), SEQ ID NO: 1 (Gadus morhua, UniProt P16049); assay: Activity assay to determine kinetic constants, WT-Trp (purified)
# T4 construct: from tissue
# T4 sequence (P16049 20-241): T2 sequence (P16049 20-241)
# Method: The following polypeptides were obtained or produced: • (a) Wildtype trypsin I purified from Atlantic cod (“WT-Tryp” or “wildtype”); • (b) Recombinantly expressed wildtype trypsin I of Atlantic cod (SEQ ID NO:1, “R-Tryp”); and • (c) Thirty-eight different mutated versions of trypsin I of Atlantic cod (i.e. mutated sequences of SEQ ID NO:1).
# as §3
# [10] = test system: Atlantic cod (Gadus morhua) trypsin I variant EZA-009, L185G, P225Y in SEQ ID NO: 1 (L184G, P221Y in SEQ ID NO: 2); assay: Activity assay to determine kinetic constants, EZA-009
# Method: as §1, §2, §3
substance,measurement,setting,value
Gly-Pro-Arg,"Vmax, Relative to WT-Trp",[1],82
same,"Vmax, Relative to WT-Trp",[2],96
same,"Vmax, Relative to WT-Trp",[3],99
same,"Vmax, Relative to WT-Trp",[4],98
same,"Vmax, Relative to WT-Trp",[5],99
same,"Vmax, Relative to WT-Trp",[6],95
same,"Vmax, Relative to WT-Trp",[7],96
same,"Vmax, Relative to WT-Trp",[8],99
same,"Vmax (Kcat), Relative to WT-Trp",[9],100
same,"Vmax, Relative to WT-Trp",[10],98
